Test results as given in patent publication US20250262201A1, “COMPOUNDS AND METHODS USEFUL FOR STABILIZING PHENYLALANINE HYDROXYLASE MUTATIONS” (Agios Pharmaceuticals, Inc., priority 2022, published 2025).

Biological target: T1, human PAH with the R408W mutation (Homo sapiens, UniProt P00439, R408W)
T1 construct: expressed in transfected cells
T1 sequence (P00439 1-452 R408W): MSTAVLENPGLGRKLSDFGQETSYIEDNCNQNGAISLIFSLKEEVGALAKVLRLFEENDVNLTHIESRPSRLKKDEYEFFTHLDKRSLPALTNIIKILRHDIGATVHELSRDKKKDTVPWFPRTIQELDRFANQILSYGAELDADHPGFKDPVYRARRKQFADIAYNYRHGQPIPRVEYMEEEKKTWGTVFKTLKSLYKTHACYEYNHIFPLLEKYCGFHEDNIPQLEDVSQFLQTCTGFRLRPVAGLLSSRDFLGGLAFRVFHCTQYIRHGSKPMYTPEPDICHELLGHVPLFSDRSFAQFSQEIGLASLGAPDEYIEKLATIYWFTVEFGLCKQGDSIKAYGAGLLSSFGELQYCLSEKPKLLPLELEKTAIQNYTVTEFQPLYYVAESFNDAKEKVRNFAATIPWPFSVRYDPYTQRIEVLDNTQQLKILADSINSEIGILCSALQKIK
Experiment: Cell Based Phenylalanine Flux Assay
Conditions: A375 cells expressing human R408W PAH; 24 hrs compound incubation; 13C-Tyrosine by LC-MS; average where tested multiple times; read-out: AC50

In the case of `Cn1nc(C(F)F)cc1C(=O)N1CCc2[nH]cnc2C1c1ccc2ccccc2n1` (stereo in doubt) [Example 73, (R)-(3-(difluoromethyl)-1-methyl-1H-pyrazol-5-yl)(4-(quinolin-2-yl)-6,7-dihydro-1H-imidazo[4,5-c]pyridin-5(4H)-yl)methanone], the AC50 is reported as 500 to 1000 nM.
Work on `Cn1nc(C(F)F)cc1C(=O)N1CCc2[nH]cnc2C1c1ccc2ccccc2n1` (stereo in doubt) [Example 74, (S)-(3-(difluoromethyl)-1-methyl-1H-pyrazol-5-yl)(4-(quinolin-2-yl)-6,7-dihydro-1H-imidazo[4,5-c]pyridin-5(4H)-yl)methanone] yielded an AC50 of 1000 to 5000 nM.
`O=C(c1nnc(-c2ccc(F)cc2F)o1)N1CCc2[nH]cnc2C1c1ccc2ccccc2n1` (stereo in doubt) [Example 75, (R)-(5-(2,4-difluorophenyl)-1,3,4-oxadiazol-2-yl)(4-(quinolin-2-yl)-6,7-dihydro-1H-imidazo[4,5-c]pyridin-5(4H)-yl)methanone] gave an AC50 of 500 to 1000 nM.
`O=C(c1nnc(-c2ccc(F)cc2F)o1)N1CCc2[nH]cnc2C1c1ccc2ccccc2n1` (stereo in doubt) [Example 76, (S)-(5-(2,4-difluorophenyl)-1,3,4-oxadiazol-2-yl)(4-(quinolin-2-yl)-6,7-dihydro-1H-imidazo[4,5-c]pyridin-5(4H)-yl)methanone] was tested, and the AC50 was greater than 5000 nM.
For `COCc1nc(C(F)F)c(C(=O)N2CCc3[nH]cnc3C2c2ccc3ccccc3n2)o1` (stereo in doubt) [Example 77, (R)-(4-(difluoromethyl)-2-(methoxymethyl)oxazol-5-yl)(4-(quinolin-2-yl)-6,7-dihydro-1H-imidazo[4,5-c]pyridin-5(4H)-yl)methanone], the AC50 was less than 500 nM.
In the case of `COCc1nc(C(F)F)c(C(=O)N2CCc3[nH]cnc3C2c2ccc3ccccc3n2)o1` (stereo in doubt) [Example 78, (S)-(4-(difluoromethyl)-2-(methoxymethyl)oxazol-5-yl)(4-(quinolin-2-yl)-6,7-dihydro-1H-imidazo[4,5-c]pyridin-5(4H)-yl)methanone], the AC50 is reported as less than 500 nM.
Work on `Cn1ncnc1C(=O)N1CCc2[nH]cnc2C1c1ccc2ccccc2n1` (stereo in doubt) [Example 80, (2-methyl-1,2,4-triazol-3-yl)-[(4R)-4-(2-quinolyl)-1,4,6,7-tetrahydroimidazo[4,5-c]pyridin-5-yl]methanone] yielded an AC50 of 500 to 1000 nM.
Work on `O=C(c1ccnn1C(F)F)N1CCc2[nH]cnc2C1c1ccc2ccccc2n1` (stereo in doubt) [Example 81, (R)-(1-(difluoromethyl)-1H-pyrazol-5-yl)(4-(quinolin-2-yl)-6,7-dihydro-1H-imidazo[4,5-c]pyridin-5(4H)-yl)methanone] yielded an AC50 of less than 500 nM.
Compound `O=C(c1ccnn1C(F)F)N1CCc2[nH]cnc2C1c1ccc2ccccc2n1` (stereo in doubt) [Example 82, (S)-(1-(difluoromethyl)-1H-pyrazol-5-yl)(4-(quinolin-2-yl)-6,7-dihydro-1H-imidazo[4,5-c]pyridin-5(4H)-yl)methanone] has an AC50 greater than 5000 nM.
`Cn1cc(C(=O)N2CCc3[nH]cnc3C2c2ccc3ccccc3n2)c(C(F)F)n1` (stereo in doubt) [Example 83, (R)-(3-(difluoromethyl)-1-methyl-1H-pyrazol-4-yl)(4-(quinolin-2-yl)-6,7-dihydro-1H-imidazo[4,5-c]pyridin-5(4H)-yl)methanone] was tested, and the AC50 was less than 500 nM.
`Cn1cc(C(=O)N2CCc3[nH]cnc3C2c2ccc3ccccc3n2)c(C(F)F)n1` (stereo in doubt) [Example 84, (S)-(3-(difluoromethyl)-1-methyl-1H-pyrazol-4-yl)(4-(quinolin-2-yl)-6,7-dihydro-1H-imidazo[4,5-c]pyridin-5(4H)-yl)methanone] was tested, and the AC50 was 1000 to 5000 nM.
Work on `Cn1ccc(-c2nnc(C(=O)N3CCc4[nH]cnc4C3c3ccc4ccccc4n3)o2)n1` (stereo in doubt) [Example 85, (R)-(5-(1-methyl-1H-pyrazol-3-yl)-1,3,4-oxadiazol-2-yl)(4-(quinolin-2-yl)-6,7-dihydro-1H-imidazo[4,5-c]pyridin-5(4H)-yl)methanone] yielded an AC50 of less than 500 nM.
`Cn1ccc(-c2nnc(C(=O)N3CCc4[nH]cnc4C3c3ccc4ccccc4n3)o2)n1` (stereo in doubt) [Example 86, (S)-(5-(1-methyl-1H-pyrazol-3-yl)-1,3,4-oxadiazol-2-yl)(4-(quinolin-2-yl)-6,7-dihydro-1H-imidazo[4,5-c]pyridin-5(4H)-yl)methanone] gave an AC50 of 1000 to 5000 nM.
`Cn1cc(C(=O)N2CCc3[nH]cnc3C2c2ccc3ccccc3n2)c(Cl)n1` (stereo in doubt) [Example 88, (R)-(3-chloro-1-methyl-1H-pyrazol-4-yl)(4-(quinolin-2-yl)-6,7-dihydro-1H-imidazo[4,5-c]pyridin-5(4H)-yl)methanone] showed an AC50 of less than 500 nM.
For `O=C(c1nnc(-c2ncccc2F)o1)N1CCc2[nH]cnc2C1c1ccc2ccccc2n1` (stereo in doubt) [Example 89, (R)-(5-(3-fluoropyridin-2-yl)-1,3,4-oxadiazol-2-yl)(4-(quinolin-2-yl)-6,7-dihydro-1H-imidazo[4,5-c]pyridin-5(4H)-yl)methanone], the AC50 was less than 500 nM.
In the case of `O=C(c1nnc(-c2ncccc2F)o1)N1CCc2[nH]cnc2C1c1ccc2ccccc2n1` (stereo in doubt) [Example 90, (S)-(5-(3-fluoropyridin-2-yl)-1,3,4-oxadiazol-2-yl)(4-(quinolin-2-yl)-6,7-dihydro-1H-imidazo[4,5-c]pyridin-5(4H)-yl)methanone], the AC50 is reported as 1000 to 5000 nM.
In the case of `CC(C)(O)c1nc(C(F)F)c(C(=O)N2CCc3[nH]cnc3C2c2ccc3ccccc3n2)o1` (stereo in doubt) [Example 91, (R)-(4-(difluoromethyl)-2-(2-hydroxypropan-2-yl)oxazol-5-yl)(4-(quinolin-2-yl)-6,7-dihydro-1H-imidazo[4,5-c]pyridin-5(4H)-yl)methanone], the AC50 is reported as less than 500 nM.
Work on `CC(C)(O)c1nc(C(F)F)c(C(=O)N2CCc3[nH]cnc3C2c2ccc3ccccc3n2)o1` (stereo in doubt) [Example 92, (S)-(4-(difluoromethyl)-2-(2-hydroxypropan-2-yl)oxazol-5-yl)(4-(quinolin-2-yl)-6,7-dihydro-1H-imidazo[4,5-c]pyridin-5(4H)-yl)methanone] yielded an AC50 of 1000 to 5000 nM.
With `Cn1nccc1C(=O)N1CCc2[nH]cnc2C1c1ccc2ccccc2n1` (stereo in doubt) [Example 93, (R)-(1-methyl-1H-pyrazol-5-yl)(4-(quinolin-2-yl)-6,7-dihydro-1H-imidazo[4,5-c]pyridin-5(4H)-yl)methanone] the AC50 was less than 500 nM.
`Cn1nccc1C(=O)N1CCc2[nH]cnc2C1c1ccc2ccccc2n1` (stereo in doubt) [Example 94, (S)-(1-methyl-1H-pyrazol-5-yl)(4-(quinolin-2-yl)-6,7-dihydro-1H-imidazo[4,5-c]pyridin-5(4H)-yl)methanone] showed an AC50 of 1000 to 5000 nM.
`O=C(c1nnc(-c2ccn(C(F)F)n2)o1)N1CCc2[nH]cnc2C1c1ccc2ccccc2n1` (stereo in doubt) [Example 95, (S)-(5-(1-(difluoromethyl)-1H-pyrazol-3-yl)-1,3,4-oxadiazol-2-yl)(4-(quinolin-2-yl)-6,7-dihydro-1H-imidazo[4,5-c]pyridin-5(4H)-yl)methanone] gave an AC50 of 1000 to 5000 nM.
`CC(C)(O)c1nc(Br)c(C(=O)N2CCc3[nH]cnc3C2c2ccc3ccccc3n2)o1` (stereo in doubt) [Example 97, (R)-(4-bromo-2-(2-hydroxypropan-2-yl)oxazol-5-yl)(4-(quinolin-2-yl)-6,7-dihydro-1H-imidazo[4,5-c]pyridin-5(4H)-yl)methanone] gave an AC50 of less than 500 nM.
